Laboratory results taken from ChEMBL document CHEMBL3885861, “Open TG-GATES”.

Organism: Rattus norvegicus
Assay: Open TG-GATES - Regimen: Daily Repeat
Type: toxicity, organism-based, Sprague-Dawley
Design: regimen Daily Repeat, gender Male, age 6 weeks
Conditions: in vivo, po, 30 mg/kg, route gavage, dose level Middle; for APTT / Bas / Eos / Fbg / Hb / Ht / Lym / MCH / MCHC / MCV / Mono / Neu / PT / Plat / RBC / Ret / WBC: tissue Blood; for KIDNEY_L / KIDNEY_R / KIDNEY_TOTAL: tissue Kidney; for LIVER: tissue Liver; for A/G / ALP / ALT / AST / BUN / CRE / Ca / Cl / DBIL / GLC / IP / K / LDH / Na / PL / RALB / TBIL / TC / TG / TP / gamma-GTP: tissue Plasma

## CCC1(c2ccccc2)C(=O)NC(=O)NC1=O [PHENOBARBITAL]
72 h, time 3 day
  TERMINAL_BW: 222.1 g
  APTT: 15.2 s
  Bas: 0%
  Eos: 0.6%
  Fbg: 228.4 mg/dL
  Hb: 13.5 g/dL
  Ht: 40.1%
  Lym: 81.2%
  MCH: 21.8 pg
  MCHC: 33.7%
  MCV: 64.9 fL
  Mono: 6.4%
  Neu: 12%
  PT: 11.2 s
  Plat: 118.8 x10_4/uL
  RBC: 618 x10_4/ul
  Ret: 7.6%
  WBC: 95.1 x10_2/uL
  KIDNEY_L: 0.9 g
  KIDNEY_R: 0.9 g
  KIDNEY_TOTAL: 1.9 g
  LIVER: 12.5 g
  A/G: 1.6
  ALP: 932 IU/L
  ALT: 36.6 IU/L
  AST: 63.2 IU/L
  BUN: 17.2 mg/dL
  CRE: 0.6 mg/dL
  Ca: 11.2 mg/dL
  Cl: 105.2 meq/L
  DBIL: 0.026 mg/dL
  GLC: 201 mg/dL
  IP: 9.2 mg/dL
  K: 4.5 meq/L
  LDH: 128.8 IU/L
  Na: 139.8 meq/L
  PL: 168.6 mg/dL
  RALB: 3.6 g/dL
  TBIL: 0.4 mg/dL
  TC: 92 mg/dL
  TG: 116.4 mg/dL
  TP: 5.9 g/dL
  gamma-GTP: 1.2 IU/L
[…], time 7 day
  TERMINAL_BW: 261.6 g
  APTT: 15.6 s
  Bas: 0%
  Eos: 0.2%
  Fbg: 242.4 mg/dL
  Hb: 13.6 g/dL
  Ht: 40.8%
  Lym: 80.8%
  MCH: 21.6 pg
  MCHC: 33.3%
  MCV: 64.9 fL
  Mono: 6.6%
  Neu: 12%
  PT: 11.6 s
  Plat: 120.5 x10_4/uL
  RBC: 629.6 x10_4/ul
  Ret: 6.9%
  WBC: 121 x10_2/uL
  KIDNEY_L: 1.1 g
  KIDNEY_R: 1.1 g
  KIDNEY_TOTAL: 2.2 g
  LIVER: 14.7 g
  A/G: 1.5
  ALP: 888 IU/L
  ALT: 29.8 IU/L
  AST: 58.4 IU/L
  BUN: 18.8 mg/dL
  CRE: 0.6 mg/dL
  Ca: 11 mg/dL
  Cl: 106.4 meq/L
  DBIL: 0.042 mg/dL
  GLC: 204 mg/dL
  IP: 8.8 mg/dL
  K: 4.6 meq/L
  LDH: 95 IU/L
  Na: 140.8 meq/L
  PL: 157 mg/dL
  RALB: 3.6 g/dL
  TBIL: 0.4 mg/dL
  TC: 85 mg/dL
  TG: 115.2 mg/dL
  TP: 6 g/dL
  gamma-GTP: 1.2 IU/L
[…], time 14 day
  TERMINAL_BW: 299.2 g
  APTT: 17.6 s
  Bas: 0%
  Eos: 0%
  Fbg: 229 mg/dL
  Hb: 14.6 g/dL
  Ht: 44.3%
  Lym: 88%
  MCH: 20.3 pg
  MCHC: 33%
  MCV: 61.5 fL
  Mono: 3%
  Neu: 8.4%
  PT: 11.6 s
  Plat: 114.8 x10_4/uL
  RBC: 720.6 x10_4/ul
  Ret: 4.8%
  WBC: 130.2 x10_2/uL
  KIDNEY_L: 1.2 g
  KIDNEY_R: 1.2 g
  KIDNEY_TOTAL: 2.3 g
  LIVER: 15.9 g
  A/G: 1.4
  ALP: 718.2 IU/L
  ALT: 27.6 IU/L
  AST: 61.8 IU/L
  BUN: 19.6 mg/dL
  CRE: 0.6 mg/dL
  Ca: 10.9 mg/dL
  Cl: 107 meq/L
  DBIL: 0.008 mg/dL
  GLC: 205.8 mg/dL
  IP: 8.5 mg/dL
  K: 4.2 meq/L
  LDH: 84.6 IU/L
  Na: 142 meq/L
  PL: 148.4 mg/dL
  RALB: 3.8 g/dL
  TBIL: 0.3 mg/dL
  TC: 79.2 mg/dL
  TG: 116.2 mg/dL
  TP: 6.5 g/dL
  gamma-GTP: 1 IU/L
[…], time 28 day
  TERMINAL_BW: 388.6 g
  APTT: 18.2 s
  Bas: 0%
  Eos: 1%
  Fbg: 215 mg/dL
  Hb: 15.1 g/dL
  Ht: 45%
  Lym: 82.6%
  MCH: 19.5 pg
  MCHC: 33.6%
  MCV: 58 fL
  Mono: 5.2%
  Neu: 11.6%
  PT: 12.2 s
  Plat: 103 x10_4/uL
  RBC: 777.2 x10_4/ul
  Ret: 3%
  WBC: 150 x10_2/uL
  KIDNEY_L: 1.3 g
  KIDNEY_R: 1.3 g
  KIDNEY_TOTAL: 2.7 g
  LIVER: 18 g
  A/G: 1.5
  ALP: 631.8 IU/L
  ALT: 32.2 IU/L
  AST: 58.6 IU/L
  BUN: 20.6 mg/dL
  CRE: 0.4 mg/dL
  Ca: 10.4 mg/dL
  Cl: 108 meq/L
  DBIL: 0.03 mg/dL
  GLC: 194.4 mg/dL
  IP: 7.5 mg/dL
  K: 4.8 meq/L
  LDH: 70 IU/L
  Na: 139.6 meq/L
  PL: 143.4 mg/dL
  RALB: 3.8 g/dL
  TBIL: 0.4 mg/dL
  TC: 76.8 mg/dL
  TG: 88.8 mg/dL
  TP: 6.3 g/dL
  gamma-GTP: 2.6 IU/L
